Test results: US20230085307A1, “PYRIDAZINONE COMPOUND AND HERBICIDE” (NISSAN CHEMICAL CORPORATION, priority 2019, published 2023)

How the values were obtained:
[1] = test system: windgrass; assay: Test Example 5: herbicidal effect by foliage application, plastic box (Table 20, symbol L); format: in vivo, windgrass (Apera spica-venti)
How it was run: (§1)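 Sow seeds spot-wise in sterilized diluvial soil; cover with ~1.5 cm soil. Grow 14 days in greenhouse, 25° C. to 30° C. Spray foliage with emulsion diluted to predetermined amount. Rate effect after 3 weeks.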

[2] = test system: Japanese bulrush; assay: Test Example 2: herbicidal activity, application during weed generation under submerged conditions (Table 17, symbol B); format: in vivo, Japanese bulrush (Schoenoplectus juncoides); settings: AAH 320 g/ha; application during weed generation, submerged conditions
How it was run: (§2)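 Wagner pot, alluvial soil, 4 cm flood; mixed sowing of all species; greenhouse 25° C.–30° C. Emulsifiable formulation, water-diluted to predetermined dose, applied to paddy water at 1–2 leaf stage. Effect rated at 3 wk using the earlier test's scoring criteria.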

[3] = test system: barnyard grass; assay: Test Example 5: herbicidal effect by foliage application, plastic box (Table 20, symbol H); format: in vivo, barnyard grass (Echinochloa crus-galli)
How it was run: as §1

[4] = test system: lambsquarters; assay: Test Example 4: herbicidal effect by soil treatment (Table 19, symbol O); format: in vivo, lambsquarters (Chenopodium album)
How it was run: (§3)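 Applied as a water-diluted emulsion, the compound was sprayed onto soil covering newly sown seeds. Evaluation came three weeks after application, in a greenhouse held at 25° C. to 30° C.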

[5] = test system: velvetleaf; assay: Test Example 5: herbicidal effect by foliage application, plastic box (Table 20, symbol M); format: in vivo, velvetleaf (Abutilon theophrasti); settings: foliage application, AAH 320 g/ha, three weeks after application
How it was run: as §1

[6] = test system: wild oat; assay: Test Example 5: herbicidal effect by foliage application, plastic box (Table 20, symbol I); format: in vivo, wild oat (Avena fatua)
How it was run: as §1

[7] = test system: barnyard grass; assay: Test Example 4: herbicidal effect by soil treatment (Table 19, symbol H); format: in vivo, barnyard grass (Echinochloa crus-galli)
How it was run: as §3

[8] = test system: Chinese sprangletop; assay: Test Example 3: herbicidal effect by foliage application, Wagner pot (Table 18, symbol D); format: in vivo, chinese sprangletop (Leptochloa chinensis); settings: 320 g/ha
How it was run: (§4)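 Plants were sown in alluvial soil held under 0.1–0.5 cm standing water and grown 14 days in a greenhouse at 25–30 °C. An emulsifiable formulation, water-diluted to the set dose, was then sprayed onto the foliage, and effects were scored three weeks later using previously defined criteria.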

[9] = test system: Italian ryegrass; assay: Test Example 4: herbicidal effect by soil treatment (Table 19, symbol K); format: in vivo, Italian ryegrass (Lolium multiflorum)
How it was run: as §3

[10] = test system: windgrass; assay: Test Example 4: herbicidal effect by soil treatment (Table 19, symbol L); format: in vivo, windgrass (Apera spica-venti)
How it was run: as §3

[11] = test system: redroot pigweed; assay: Test Example 5: herbicidal effect by foliage application, plastic box (Table 20, symbol N); format: in vivo, redroot pigweed (Amaranthus retroflexus)
How it was run: as §1

[12] = test system: green foxtail; assay: Test Example 4: herbicidal effect by soil treatment (Table 19, symbol G); format: in vivo, green foxtail (Setaria viridis)
How it was run: as §3

[13] = test system: blackgrass; assay: Test Example 4: herbicidal effect by soil treatment (Table 19, symbol J); format: in vivo, blackgrass (Alopecurus myosuroides)
How it was run: as §3

[14] = test system: persian speedwell; assay: Test Example 5: herbicidal effect by foliage application, plastic box (Table 20, symbol R); format: in vivo, Persian speedwell (Veronica persica)
How it was run: as §1

[15] = test system: southern crabgrass; assay: Test Example 4: herbicidal effect by soil treatment (Table 19, symbol F); format: in vivo, southern crabgrass (Digitaria ciliaris)
How it was run: as §3

[16] = test system: chickweed; assay: Test Example 5: herbicidal effect by foliage application, plastic box (Table 20, symbol P); format: in vivo, common chickweed (Stellaria media)
How it was run: as §1

[17] = test system: Italian ryegrass; assay: Test Example 5: herbicidal effect by foliage application, plastic box (Table 20, symbol K); format: in vivo, Italian ryegrass (Lolium multiflorum)
How it was run: as §1

[18] = test system: chickweed; assay: Test Example 4: herbicidal effect by soil treatment (Table 19, symbol P); format: in vivo, common chickweed (Stellaria media)
How it was run: as §3

[19] = test system: wild oat; assay: Test Example 4: herbicidal effect by soil treatment (Table 19, symbol I); format: in vivo, wild oat (Avena fatua)
How it was run: as §3

[20] = test system: green foxtail; assay: Test Example 5: herbicidal effect by foliage application, plastic box (Table 20, symbol G); format: in vivo, green foxtail (Setaria viridis)
How it was run: as §1

[21] = test system: blackgrass; assay: Test Example 5: herbicidal effect by foliage application, plastic box (Table 20, symbol J); format: in vivo, blackgrass (Alopecurus myosuroides)
How it was run: as §1

[22] = test system: lambsquarters; assay: Test Example 5: herbicidal effect by foliage application, plastic box (Table 20, symbol O); format: in vivo, lambsquarters (Chenopodium album)
How it was run: as §1

[23] = test system: rice flat sedge; assay: Test Example 3: herbicidal effect by foliage application, Wagner pot (Table 18, symbol E); format: in vivo, rice flat sedge (Cyperus iria); settings: 320 g/ha
How it was run: as §4

[24] = test system: barnyard grass; assay: Test Example 3: herbicidal effect by foliage application, Wagner pot (Table 18, symbol H); format: in vivo, barnyard grass (Echinochloa crus-galli); settings: 320 g/ha
How it was run: as §4

[25] = test system: persian speedwell; assay: Test Example 4: herbicidal effect by soil treatment (Table 19, symbol R); format: in vivo, Persian speedwell (Veronica persica)
How it was run: as §3

[26] = test system: oval-leafed pondweed; assay: Test Example 2: herbicidal activity, application during weed generation under submerged conditions (Table 17, symbol C); format: in vivo, oval-leafed pondweed (Monochoria vaginalis); settings: AAH 320 g/ha; application during weed generation, submerged conditions
How it was run: as §2

[27] = test system: velvetleaf; assay: Test Example 4: herbicidal effect by soil treatment (Table 19, symbol M); format: in vivo, velvetleaf (Abutilon theophrasti)
How it was run: as §3

[28] = test system: late watergrass; assay: Test Example 2: herbicidal activity, application during weed generation under submerged conditions (Table 17, symbol A); format: in vivo, late watergrass (Echinochloa oryzicola); settings: AAH 320 g/ha; application during weed generation, submerged conditions
How it was run: as §2

[29] = test system: southern crabgrass; assay: Test Example 5: herbicidal effect by foliage application, plastic box (Table 20, symbol F); format: in vivo, southern crabgrass (Digitaria ciliaris)
How it was run: as §1

[30] = test system: redroot pigweed; assay: Test Example 4: herbicidal effect by soil treatment (Table 19, symbol N); format: in vivo, redroot pigweed (Amaranthus retroflexus)
How it was run: as §3

[31] = foliage application, AAH 320 g/ha, three weeks after application
[32] = 320 g/ha, foliage application after 14-day growth, evaluated three weeks after application
[33] = amount of applied herbicide 320 g/ha

Cc1nn(C)c(=O)c(-c2c(-c3ccccc3OCC(F)(F)F)sc3ccccc23)c1O [1-118]
L: windgrass, herbicidal effect [1, 31]: 5 (Herbicidal rate of 90% or more (almost completely withered)) | herbicidal effect rating, B: Japanese bulrush [2]: 0 (Herbicidal rate of 5% or less (almost no effect)) | H: barnyard grass, herbicidal effect [3, 31]: 2 (Herbicidal rate of 20% or more and less than 40%) | O: lambsquarters, herbicidal effect rating ([4]; AAH 320 g/ha): 5 (Herbicidal rate of 90% or more (almost completely withered)) | M: velvetleaf, herbicidal effect [5]: 5 (Herbicidal rate of 90% or more (almost completely withered)) | I: wild oat, herbicidal effect [6, 31]: 4 (Herbicidal rate of 70% or more and less than 90%) | H: barnyard grass, herbicidal effect rating ([7]; AAH 320 g/ha): 4 (Herbicidal rate of 70% or more and less than 90%) | herbicidal effect on D (Chinese sprangletop), rating 0-5 [8]: 2 (Herbicidal rate of 20% or more and less than 40%) | K: Italian ryegrass, herbicidal effect rating ([9]; AAH 320 g/ha): 0 (Herbicidal rate of 5% or less (almost no effect)) | L: windgrass, herbicidal effect rating ([10]; AAH 320 g/ha): 3 (Herbicidal rate of 40% or more and less than 70%) | N: redroot pigweed, herbicidal effect [11, 31]: 5 (Herbicidal rate of 90% or more (almost completely withered)) | G: green foxtail, herbicidal effect rating ([12]; AAH 320 g/ha): 3 (Herbicidal rate of 40% or more and less than 70%) | J: blackgrass, herbicidal effect rating ([13]; AAH 320 g/ha): 3 (Herbicidal rate of 40% or more and less than 70%) | R: persian speedwell, herbicidal effect [14, 31]: 5 (Herbicidal rate of 90% or more (almost completely withered)) | F: southern crabgrass, herbicidal effect rating ([15]; AAH 320 g/ha): 1 (Herbicidal rate of 5% or more and less than 20%) | P: chickweed, herbicidal effect [16, 31]: 5 (Herbicidal rate of 90% or more (almost completely withered)) | K: Italian ryegrass, herbicidal effect [17, 31]: 4 (Herbicidal rate of 70% or more and less than 90%) | P: chickweed, herbicidal effect rating ([18]; AAH 320 g/ha): 3 (Herbicidal rate of 40% or more and less than 70%) | I: wild oat, herbicidal effect rating ([19]; AAH 320 g/ha): 3 (Herbicidal rate of 40% or more and less than 70%) | G: green foxtail, herbicidal effect [20, 31]: 5 (Herbicidal rate of 90% or more (almost completely withered)) | J: blackgrass, herbicidal effect [21, 31]: 4 (Herbicidal rate of 70% or more and less than 90%) | O: lambsquarters, herbicidal effect [22, 31]: 3 (Herbicidal rate of 40% or more and less than 70%) | herbicidal effect on E (rice flat sedge), rating 0-5 [23]: 2 (Herbicidal rate of 20% or more and less than 40%) | herbicidal effect on H (barnyard grass), rating 0-5 [24]: 4 (Herbicidal rate of 70% or more and less than 90%) | R: persian speedwell, herbicidal effect rating ([25]; AAH 320 g/ha): 4 (Herbicidal rate of 70% or more and less than 90%) | herbicidal effect rating, C: oval-leafed pondweed [26]: 0 (Herbicidal rate of 5% or less (almost no effect)) | M: velvetleaf, herbicidal effect rating ([27]; AAH 320 g/ha): 3 (Herbicidal rate of 40% or more and less than 70%) | herbicidal effect rating, A: late watergrass [28]: 3 (Herbicidal rate of 40% or more and less than 70%) | F: southern crabgrass, herbicidal effect [29, 31]: 5 (Herbicidal rate of 90% or more (almost completely withered)) | N: redroot pigweed, herbicidal effect rating ([30]; AAH 320 g/ha): 5 (Herbicidal rate of 90% or more (almost completely withered))

CCCC(=O)Oc1c(C)nn(C)c(=O)c1-c1c(-c2ccccc2OC)sc2c(Cl)cccc12 [4-022]
herbicidal effect on L: windgrass (evaluation grade 0-5) [1, 32]: 5 (Herbicidal rate of 90% or more (almost completely withered)) | herbicidal effect rating, B: Japanese bulrush [2]: 2 (Herbicidal rate of 20% or more and less than 40%) | herbicidal effect on H: barnyard grass (evaluation grade 0-5) [3, 32]: 4 (Herbicidal rate of 70% or more and less than 90%) | Herbicidal effect by soil treatment, O: lambsquarters [4, 33]: 2 (Herbicidal rate of 20% or more and less than 40%) | herbicidal effect on I: wild oat (evaluation grade 0-5) [6, 32]: 0 (Herbicidal rate of 5% or less (almost no effect)) | Herbicidal effect by soil treatment, H: barnyard grass [7, 33]: 3 (Herbicidal rate of 40% or more and less than 70%) | herbicidal effect on Chinese sprangletop (D) [8]: 5 (Herbicidal rate of 90% or more (almost completely withered)) | Herbicidal effect by soil treatment, K: Italian ryegrass [9, 33]: 0 (Herbicidal rate of 5% or less (almost no effect)) | Herbicidal effect by soil treatment, L: windgrass [10, 33]: 0 (Herbicidal rate of 5% or less (almost no effect)) | herbicidal effect on N: redroot pigweed (evaluation grade 0-5) [11, 32]: 3 (Herbicidal rate of 40% or more and less than 70%) | Herbicidal effect by soil treatment, G: green foxtail [12, 33]: 3 (Herbicidal rate of 40% or more and less than 70%) | Herbicidal effect by soil treatment, J: blackgrass [13, 33]: 0 (Herbicidal rate of 5% or less (almost no effect)) | herbicidal effect on R: persian speedwell (evaluation grade 0-5) [14, 32]: 3 (Herbicidal rate of 40% or more and less than 70%) | Herbicidal effect by soil treatment, F: southern crabgrass [15, 33]: 3 (Herbicidal rate of 40% or more and less than 70%) | herbicidal effect on P: chickweed (evaluation grade 0-5) [16, 32]: 5 (Herbicidal rate of 90% or more (almost completely withered)) | herbicidal effect on K: Italian ryegrass (evaluation grade 0-5) [17, 32]: 1 (Herbicidal rate of 5% or more and less than 20%) | Herbicidal effect by soil treatment, P: chickweed [18, 33]: 1 (Herbicidal rate of 5% or more and less than 20%) | Herbicidal effect by soil treatment, I: wild oat [19, 33]: 0 (Herbicidal rate of 5% or less (almost no effect)) | herbicidal effect on G: green foxtail (evaluation grade 0-5) [20, 32]: 2 (Herbicidal rate of 20% or more and less than 40%) | herbicidal effect on J: blackgrass (evaluation grade 0-5) [21, 32]: 0 (Herbicidal rate of 5% or less (almost no effect)) | herbicidal effect on O: lambsquarters (evaluation grade 0-5) [22, 32]: 0 (Herbicidal rate of 5% or less (almost no effect)) | herbicidal effect on rice flat sedge (E) [23]: 4 (Herbicidal rate of 70% or more and less than 90%) | herbicidal effect on barnyard grass (H) [24]: 5 (Herbicidal rate of 90% or more (almost completely withered)) | Herbicidal effect by soil treatment, R: persian speedwell [25, 33]: 0 (Herbicidal rate of 5% or less (almost no effect)) | herbicidal effect rating, C: oval-leafed pondweed [26]: 0 (Herbicidal rate of 5% or less (almost no effect)) | Herbicidal effect by soil treatment, M: velvetleaf [27, 33]: 0 (Herbicidal rate of 5% or less (almost no effect)) | herbicidal effect rating, A: late watergrass [28]: 0 (Herbicidal rate of 5% or less (almost no effect)) | herbicidal effect on F: southern crabgrass (evaluation grade 0-5) [29, 32]: 0 (Herbicidal rate of 5% or less (almost no effect)) | Herbicidal effect by soil treatment, N: redroot pigweed [30, 33]: 3 (Herbicidal rate of 40% or more and less than 70%)
